Data on one molecule can be found in patent publication US20260069696A1, “Combined therapy of photodynamic therapy and immune checkpoint inhibitor” (Shanghai Guang Sheng Pharmaceutical Co., Ltd., priority 2023, published 2026).

The experiment concerns human esophageal cancer Eca-109 nude mouse xenograft tumor. Description: Efficacy of DVDMS-PDT combined with PD-1 antibody in mouse model of human esophageal cancer Eca-109. Particulars: Only received DVDMS-PDT, DVDMS 2 mg/kg, laser 70 J/cm2, Day 21. It is filed as in vivo, nu/nu nude mice. From the text:
Example 1. Efficacy of combined therapy of sodium porphyrine-mediated photodynamic therapy (DVDMS-PDT) with PD-1 antibody in a mouse model of human esophageal cancer Eca-109
Purpose: observe the growth-inhibiting effect of DVDMS-PDT combined with PD-1 antibody (Pembrolizumab) on human esophageal cancer Eca-109 nude mouse xenograft tumor, optimize the time window between DVDMS-PDT and PD-1 antibody treatment, and provide a reference for clinical application.
Harvest human esophageal cancer Eca-109 cells at logarithmic growth phase and dilute with culture medium to a cell concentration of 5*10^7 cells/mL, and inoculate subcutaneously at the right thigh root of nude mice at an injection of 0.1 mL per nude mouse. And 7-10 days later, grow the subcutaneous tumor at the root of the thigh on the right side of the nude mouse until the diameter is about 5-8 mm for later use.
Select qualified tumor-bearing mouse models as described above, measure the length and the width of the tumors using a vernier caliper, and stratify and group the mice according to tumor size, with 6 mice in each group. Prepare the sodium porphyrine DVDMS-2 for injection 24 hours before the experiment, and refrigerate in the dark before use. Administer DVDMS-2 via tail vein at a dose of 2 mg/kg body weight (Day-1), followed by PDT treatment 24 hours later (Day 0). […]

In the case of `C=CC1=C(C)c2cc3[nH]c(cc4nc(cc5[nH]c(cc1n2)c(C)c5C(C)OC(C)C1=C(C)c2cc5[nH]c(cc6nc(cc7[nH]c(cc1n2)c(C)c7CCC(=O)[O-])C(CCC(=O)[O-])=C6C)c(C)c5C=C)C(C)=C4CCC(=O)[O-])c(CCC(=O)[O-])c3C.[Na+].[Na+].[Na+].[Na+]` (centres unmarked) [DVDMS-PDT, bis [1-[6,7-sodium dipropionate-1,3,5,8-tetramethyl-2-vinyl-4-porphine]ethyl]ether], the “Tumor growth inhibition rate(%)” value is reported as 66.8%. Where the note is “in g (unit assumed)”, the Tumor weight was found to be 0.43 ± 0.58.
